According to patent US10711011B2, “Substituted oxazolidines as anti-bacterial agents” (BUGWORKS RESEARCH, INC., priority 2016, dated 2020):
Values after ≈ are worked out from the molar mass of the structure shown. Like-named read-outs stand apart in the source and are kept apart here.

Experiments:
S. aureus ATCC 29213 = assay: Minimum Inhibitory Concentration (MIC) in LB media; assay type: cell-based, Staphylococcus aureus; conditions: Staphylococcus aureus, ATCC29213, LB Media
Description: (§1) The compounds of Formula I are of interest due to their potent antibacterial effects. The ability of the invention compounds disclosed herein to achieve an antibacterial effect may be evaluated with regard to their ability to inhibit the growth of bacterial species like Escherichia coli ATCC 25922, Staphylococcus aureus ATCC 29213, Klebsiella pneumoniae ATCC 13883, Acinetobacter baumannii ATCC 19606, Pseudomonas aurigenosa ATCC 27853, Enterococcus faecalis ATCC 29212 and Enterococcus faecalis ATCC 29212 using an assay based on the following Minimum Inhibitory Concentration (MIC) protocol:
(§2) The test bacteria are grown in Luria Bertani Broth (HIMEDIA M1245), 25 grams of the powder is dissolved in 1000 ml distilled water and sterilized by autoclaving at 15 lbs pressure (121° C.) for 20 minutes. The medium sterility is checked by incubating at 37° C. for a period of 48 h.
(§3) Bacterial cultures that are stored as glycerol stocks at −80° C. are sub cultured on LB agar plates to obtain isolated colonies. A single colony of each strain is cultured in LB broth. The cultures are incubated at 37° C., 200 rpm till they reach an optical density (OD at 600 nm) of 0.8 to 1. […] Test compounds are dissolved in dimethyl sulfoxide (DMSO) to a stock concentration of 4 mg/ml. A twofold dilution series of this DMSO stock is prepared in a 96 well V bottom microtitre plate from rows A to H. A 3 μL volume of these dilutions are transferred to a 96-well flat bottom microtitre assay plate. Controls to monitor the effects of DMSO and media sterility are included. Each well is inoculated with 150 μL of the above diluted culture. The plates are incubated at 37° C. overnight in a humidified incubator. The following morning, the plates are read using a Spectrophotometer at 600 nm wavelength. […] The antibacterial activity (MIC) determined against representative Gram positive (S. aureus, E. faecalis) and Gram negative (E. coli, P. aurigenosa, K. pneumoniae and A. baumannii) pathogen were reported Table 1.

E. faecalis ATCC 29212 = assay: Minimum Inhibitory Concentration (MIC) in LB media; assay type: cell-based, Enterococcus faecalis; conditions: Enterococcus faecalis, ATCC29212
Description: as §1, §2, §3

A. baumannii ATCC 19606 = assay: Minimum Inhibitory Concentration (MIC) in LB media; assay type: cell-based, Acinetobacter baumannii; conditions: Acinetobacter baumannii, ATCC19606, LB Media
Description: as §1, §2, §3

E. coli DNA gyrase = E. coli DNA gyrase (Escherichia coli, UniProt P0AES4+P0AES6); assay: biochemical; conditions: supercoiling assay
Sequence of E. coli DNA gyrase (P0AES4 whole entry, one chain of several): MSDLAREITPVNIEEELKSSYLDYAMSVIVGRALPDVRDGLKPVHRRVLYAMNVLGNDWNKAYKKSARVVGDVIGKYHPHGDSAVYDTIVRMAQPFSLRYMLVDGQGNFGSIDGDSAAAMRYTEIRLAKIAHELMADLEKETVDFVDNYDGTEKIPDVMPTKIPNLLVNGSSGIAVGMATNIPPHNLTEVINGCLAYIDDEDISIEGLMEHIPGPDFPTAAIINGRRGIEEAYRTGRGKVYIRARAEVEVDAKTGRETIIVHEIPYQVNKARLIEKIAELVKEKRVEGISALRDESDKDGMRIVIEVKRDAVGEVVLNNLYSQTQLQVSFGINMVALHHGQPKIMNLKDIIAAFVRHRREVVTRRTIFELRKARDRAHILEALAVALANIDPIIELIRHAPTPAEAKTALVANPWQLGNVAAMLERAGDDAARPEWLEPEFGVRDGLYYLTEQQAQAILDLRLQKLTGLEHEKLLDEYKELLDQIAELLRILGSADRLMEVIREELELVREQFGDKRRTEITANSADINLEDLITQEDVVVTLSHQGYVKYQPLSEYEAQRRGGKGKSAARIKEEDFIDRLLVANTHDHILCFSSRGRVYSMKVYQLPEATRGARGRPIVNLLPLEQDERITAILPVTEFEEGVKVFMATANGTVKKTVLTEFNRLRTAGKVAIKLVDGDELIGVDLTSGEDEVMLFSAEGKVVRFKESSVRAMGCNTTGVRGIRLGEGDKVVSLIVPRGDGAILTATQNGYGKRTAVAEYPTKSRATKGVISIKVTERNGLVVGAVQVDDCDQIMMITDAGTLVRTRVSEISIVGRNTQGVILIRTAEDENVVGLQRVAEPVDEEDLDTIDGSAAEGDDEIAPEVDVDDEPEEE

[1] = Mouse intravenous pharmacokinetics; assay type: in vivo, BALB/c mice; conditions: 2 mg/kg
Method: To assess the Oral and Intravenous pharmacokinetic profile of Example 13, pharmacokinetics (PK) of Example 13 was characterized in BALB/c mice following single intravenous (i.v.) dose of 2 mg/kg and single escalating oral doses of 2, 10, 50 and 100 mg/kg, respectively. This study was performed following all ethical practices as laid down in the guidelines for animal care (Registration number No. 1852/PO/Rc/S/16/CPCSEA). The study was approved by the Institutional Animals Ethics Committee (IAEC) of the test facility. For IVPK in BALB/c mice, the formulation used was DMSO: PEG400: Ethanol: Water (10:20:10:60 v/v) and Example 13 administered as solution. For POPK, the formulation used was 0.1% Tween80 in 0.25% CMC and Example 13 administered as suspension through an oral gavage. The plasma (mice) samples were analyzed by LC-MS/MS. PK parameters were estimated by non-compartmental analysis in Phoenix WinNonlin 6.4 The results of the per-oral and intravenous PK study of Example 13 are presented in Table 4 and 5

E. coli [ATCC 25922] = assay: In vivo efficacy in the mouse E. coli thigh infection model; conditions: neutropenic BALB/c mice, oral
Method: To assess the Oral efficacy, Example 13 was tested in BALB/c mice thigh infection model following per oral doses of 100 mg/kg once, 50 mg/kg once and twice, 33 mg/kg thrice and 25 mg/kg four times over a 24 hour period post infection. This study was performed following all ethical practices as laid down in the guidelines for animal care (Registration number No. 1852/PO/Rc/S/16/CPCSEA). The study was approved by the Institutional Animals Ethics Committee (IAEC) of the test facility. The formulation used was 0.1% Tween80 in 0.25% CMC and Example 13 administered as suspension through an oral gavage. Neutropenic mice were infected with [˜1×10^6 CFU/mouse] E. coli [ATCC 25922] by intramuscular route. Two hours post infection, mice were treated orally with total doses of 100, 50, 50, 33 and 25 mg/kg of Example 13 as one, two, three and four equally divided doses over a 24 h period. Animals were sacrificed 24 hr post infection and thigh tissues were harvested to enumerate the bacterial CFU count. Thigh muscles were placed in 1 ml of sterile LB broth and homogenized using a homogenizer (Omni Tip (220 volt hand held)). Serial ten-fold dilutions of the thigh homogenates were prepared in sterile LB broth, 0.05 ml of four dilutions for each thigh was plated onto Lactose agar plates. […]

[2] = BALB/c, mouse, plasma, iv, mice

CN1C(=O)Cc2ccc(F)c(CCNCCC3CN(c4ccc5c(n4)NC(=O)CO5)C(=O)O3)c21 (single isomer, unassigned) [Example 13, 6-(5-(2-((2-(6-fluoro-1-methyl-2-oxoindolin-7-yl)ethyl)amino)ethyl)-2-oxooxazolidin-3-yl)-2H-pyrido[3,2-b][1,4]oxazin-3(4H)-one]
MIC (S. aureus ATCC 29213): 0.03 µg/mL (≈ 0.0639 µM) | MIC (E. faecalis ATCC 29212): 0.25 µg/mL (≈ 0.533 µM) | MIC (A. baumannii ATCC 19606): 0.06 µg/mL (≈ 0.128 µM) | IC50 (E. coli DNA gyrase): 50 nM | clearance ([1]; BALB/c, mouse, plasma, iv, BALB/c mice, single i.v. dose of 2.0 mg/kg, read-out: systemic clearance (converted)): 95 mL/min/kg | Vd ([1]; BALB/c, mouse, plasma, iv, BALB/c mice, single i.v. dose of 2.0 mg/kg, read-out: volume of distribution at steady state): 13.3 L/kg | half-life [1, 2]: 1.7 h | clearance ([1]; BALB/c, mouse, plasma, iv, mice, i.v., read-out: CL (converted)): 94.8 mL/min/kg | Vd ([1]; BALB/c, mouse, plasma, iv, mice, i.v., read-out: Vss): 13.3 L/kg | AUC(0-inf) [1, 2]: 352 ng·h/mL | AUC(0-t) [1, 2]: 352 ng·h/mL | AUC (% Extrap) ([1]; mice, i.v.): 0.002% | Ke ([1]; mice, i.v.): 0.403 h⁻¹ | t1/2 ([1]; mice, i.v.): 1.718 h | efficacy (bacterial density Log 10 CFU/thigh vs vehicle) (E. coli [ATCC 25922]; 100 mg/kg as single, two, three and four equally divided doses over 24 h): significant efficacy | efficacy (bacterial density Log 10 CFU/thigh vs vehicle) (E. coli [ATCC 25922]; single dose of 50 mg/kg): ineffective
